Assay results published in patent publication US10466259B2, “Synthetic antigen compositions for detecting anti-phosphatidylethanolamine antibodies” (Northwestern Univeristy, priority 2015, dated 2019).
“Also recorded” adds a separate entry of the source.

Assays:
Type in all cases: binding, human
cofactor-independent aPE = assay: aPE ELISA, cofactor-independent patient serum (Example 1); conditions: representative patient serum, antigen 1 to 400 μg/ml, FIG. 1
Description: For aPE ELISA assays (ref. 14; herein incorporated by reference in its entirety), microtiter plates (PolySorp, Thermo Fisher, Pittsburgh, USA) were coated with 50 μl of a solution containing various concentrations of egg yolk PE or equal molar amounts of DOPE in ethanol:chloroform (4:1) and dried by evaporation at room temperature (RT) in an extractor shielded from light. Each well was blocked for two hours at RT with 10% BSA in PBS followed by 50 μl of patient serum diluted 1/100 in PBS for one hour at RT. aPEs were assessed by using alkaline phosphatase conjugated polyclonal antibody (Ab) against either human IgG or IgM. The plates were washed three times with PBS after blocking, serum and conjugate incubations. After color development with paranitrophenyl phosphate as substrate, optical density at 405 nm was measured. OD values of pooled normal serum control were subtracted from those of patient serum samples measured with the same PE concentration.
In order to determine the optimal concentration of antigen in aPE ELISA, wells were coated with a series of concentrations of egg yolk PE ranging from 1 to 400 μg/ml aPEs or normal control serum were assessed with alkaline phosphatase conjugated polyclonal Ab to either IgG or IgM. […]

[1] = test system: cofactor-independent aPE IgG; assay: ELISA of synthetic PE compositions, cofactor-independent aPE IgG
Description: FIG. 15. Head-to-head comparison between egg PE and synthetic 20:4 PE on the ELISA for cofactor-independent aPE IgG reactivity. The 96 well plate was coated with 1 mg of indicated PE per well, OD405 was measured after ELISA and the relative OD value was determined by subtracting the OD value of normal human serum from the patient sample. […] A total 14 patient serums were tested.

[2] = test system: cofactor-dependent IgG aPE; assay: ELISA with affinity-purified total IgG, cofactor-dependent samples
Description: (§1) FIG. 18. aPE reactivity to egg PE, 20:4 PE and 18:1 PE using affinity-purified total IgG from a cofactor-dependent and a cofactor-independent IgG aPE patient plasma. For each ELISA test, the total IgG was used at a concentration of 200 μg/ml. […] The values are means of triplicates.
The values are means of triplicates.
(§2) To minimize uncertainties caused by potential confounding factors in the serum and variations in immunoglobulin contents, the total IgG was isolated from representative aPE patient serum samples and was used to validate ELISA assays.
(§3) Microplates were coated using Egg PE, 20:4 PE or 18:1 PE for IgG aPE ELISA for normal human serum, a representative cofactor-dependent and cofactor-independent patient serum.

[3] = test system: cofactor-independent aPE IgM; assay: ELISA of synthetic PE compositions, cofactor-independent aPE IgM; conditions: FIG. 9
Description: FIGS. 12A-B. Determination of PE coating amount and its impact on ELISA. A, B. determination of PE coating Amount. The indicated amount of PE was coated on 96 well plate and Elisa was performed. The relative OD405 value was deducted the normal serum value. The error bar represents SEM, n=3. A for egg PE, B for 20% 18:0 PE, 13.3% 18:1 PE, 39.9% 20:4 PE, and 26.6% 22:6 PE.
FIG. 13. A head-to-head comparison on the ELISA performance between egg PE and the synthetic formulation. The ELISA place was coated with 0.5 μg of egg PE or the kit formulation (20% 18:0 PE, 13.3% 18:1 PE, 39.9% 20:4 PE, and 26.6% 22:6 PE). OD405 was measured after ELISA and the relative OD value was subtracted from the normal human serum value. The net value was the mean of triplicates. A total 11 patient serum samples were tested for experiments.
Egg PE is currently the most widely used source of PE in ELISA tests for aPE.

[4] = test system: cofactor-independent IgG aPE; assay: ELISA with affinity-purified total IgG, cofactor-independent sample; conditions: FIG. 18, total IgG 200 μg/ml
Description: as §1, §2, §3

SMILES	antigen concentration at which aPE reactivities peaked (cofactor-independent aPE)	OD value relative to egg PE ([1]; FIG. 14, representative patient serum sample, 1 mg PE per well)	relative ELISA performance against egg PE ([1]; FIG. 14, representative patient serum sample, 1 mg PE per well, n=3)	head-to-head ELISA performance versus egg PE ([1]; FIG. 15, 14 patient serum samples, P=0.012)	improvement of aPE reactivity versus egg PE ([1]; FIG. 15, some samples)	aPE reactivity of purified total IgG ([2]; FIG. 18, cofactor-dependent sample, total IgG 200 μg/ml)	aPE reactivity of purified total IgG ([2]; FIG. 19, two other cofactor-dependent aPE samples)	ELISA performance compared with egg PE ([3]; 0.5 mg PE per well, relative OD405 normalized with egg PE, serum from patient J083006H, n=3)	ELISA performance compared with other single PE species ([3]; unsaturated versus saturated, longer versus shorter fatty acid tails)	aPE reactivity of purified total IgG [4]
CCCCCCCC/C=C\CCCCCCCC(=O)OC[C@H](COP(=O)(O)OCCN)OC(=O)CCCCCCC/C=C\CCCCCCCC [DOPE, dioleoyl PE]	around 5 μg/ml									
CCCCC/C=C\C/C=C\C/C=C\C/C=C\CCCC(=O)OC[C@H](COP(=O)(O)OCCN)OC(=O)CCC/C=C\C/C=C\C/C=C\C/C=C\CCCCC [20:4 PE, arachidonic PE]		~14 folds	highest OD value	out-performed egg PE significantly	≥ 500%	not	not	out-perform egg PE	better performance	significant reactivity; also recorded: prefer
